These results are taken from patent publication US11673876B2, “Substituted aminobenzyl heteroaryl compounds as EGFR and/or PI3K inhibitors” (Mekanistic Therapeutics LLC, priority 2020, dated 2023).

What is called IC50 is the concentration at which inhibition is half-maximal. Higher therefore signals weaker potency in that assay.

The target in one data set is DNA-PK (Homo sapiens (Human), UniProt P78527). As to the kind of experiment: Z'-LYTE / Adapta kinase assay, DNA-PK. In kind it is biochemical. As to conditions: for inhibition at 0.1 µM: read-out: DNA-PK % Inh. @ 100 nM. The essentials: (§1)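 Z'-LYTE FRET-peptide phosphorylation read as coumarin/fluorescein emission ratio (400 nm excitation); Adapta immunoassay detects ADP formation. 60-min kinase reaction, 60-min development, room temperature.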

Data set [1] can be described thus: Metabolic stability in human liver microsomes. The format is in vitro ADME. As for the experimental part: (§2) Working solution: 5 μL of compound and control stock solution (10 mM in dimethyl sulfoxide (DMSO)) were diluted with 495 μL of acetonitrile (ACN) (intermediate solution concentration: 100 μM, 99% ACN)
(§3) NADPH Cofactor Preparation: NADPH powder: β-Nicotinamide adenine dinucleotide phosphate reduced form, tetrasodium salt; NADPH·4Na. The appropriate amount of NADPH powder was weighed and diluted into a 10 mM MgCl2 solution (working solution concentration: 10 unit/mL; final concentration in reaction system: 1 unit/mL)
(§4) Liver Microsomes Preparation: The appropriate concentrations of microsome working solutions were prepared in 100 mM potassium phosphate buffer. Cold (4° C.) acetonitrile (ACN) containing 200 ng/mL tolbutamide and 200 ng/mL labetalol as internal standards (1S) was used as the stop solution
(§5) Assay Procedure: Pre-warm empty ‘Incubation’ plates T60 and NCF60 for 10 minutes. Dilute liver microsomes to 0.56 mg/mL in 100 mM phosphate buffer. Transfer 445 μL microsome working solutions (0.56 mg/mL) into pre-warmed ‘Incubation’ plates T60 and NCF60, Then pre-incubate ‘Incubation’ plates T60 and NCF60 for 10 min at 37° C. with constant shaking. Transfer 54 μL liver microsomes to blank plate, then add 6 μL NAPDH cofactor to blank plate, and then add 180 μL quenching solution to blank plate. Add 5 μL compound working solution (100 μM) into ‘incubation’ plates (T60 and NCF60) containing microsomes and mix 3 times thoroughly.
(§6) For the NCF60 plate, add 50 μL of buffer and mix 3 times thoroughly. Start timing; plate will be incubated at 37° C. for 60 min while shaking. In ‘Quenching’ plate T0, add 180 μL quenching solution and 6 μL NAPDH cofactor. Ensure the plate is chilled to prevent evaporation. For the T60 plate, mix 3 times thoroughly, and immediately remove 54 μL mixture for the 0-min time point to ‘Quenching’ plate. Then add 44 μL NAPDH cofactor to incubation plate (T60). Start timing; plate will be incubated at 37° C. for 60 min while shaking. At 5, 10, 20, 30, and 60 min, add 180 μL quenching solution to ‘Quenching’ plates, mix once, and serially transfer 60 μL sample from T60 plate per time point to ‘Quenching’ plates. For NCF60: mix once, and transfer 60 μL sample from the NCF60 incubation to ‘Quenching’ plate containing quenching solution at the 60-min time point. All sampling plates are shaken for 10 min, then centrifuged at 4000 rpm for 20 minutes at 4° C. Transfer 80 μL supernatant into 240 μL HPLC water, and mix by plate shaker for 10 min. Each bioanalysis plate was sealed and shaken for 10 minutes prior to LC-MS/MS analysis.
(§7) The equation of first order kinetics was used to calculate T½ and CLint(mic) (μL/min/mg). Equation of first order kinetics: […]
(§8) The biological stability of the compounds of the disclosure can be measured by determining its ½ life in the presence microsomes. Presented in Table 5, is the ½ life of selected compounds of the disclosure in the presence of human liver microsomes (HLM) or mouse liver microsomes (MLM) as described above. In Table 5, ½ life is presented as “++++” (value is greater than 60 minutes), “+++” (value is greater than 30 minutes and less than or equal to 60 minutes), “++” (value is greater than 15 minutes and less than or equal to 30 minutes) and “+” (value is 15 minutes or less).

For another data set, the target named is EGFR (Homo sapiens (Human), UniProt P00533). Nature of the data set: Z'-LYTE / Adapta kinase assay, EGFR. In kind it is biochemical. As to conditions: for inhibition at 0.1 µM: read-out: EGFR % Inh. @ 100 nM. The procedure, abridged: as §1
The nature of data set [2]: Metabolic stability in mouse liver microsomes. The format is in vitro ADME. The method, then: as §2, §3, §4, §5, §6, §7, §8
(In general: Liver microsomes are a subcellular fraction often used to study metabolism.)

Where only a bound is given, the exact number is not on record here.

Chain of EGFR (P00533 25-1210): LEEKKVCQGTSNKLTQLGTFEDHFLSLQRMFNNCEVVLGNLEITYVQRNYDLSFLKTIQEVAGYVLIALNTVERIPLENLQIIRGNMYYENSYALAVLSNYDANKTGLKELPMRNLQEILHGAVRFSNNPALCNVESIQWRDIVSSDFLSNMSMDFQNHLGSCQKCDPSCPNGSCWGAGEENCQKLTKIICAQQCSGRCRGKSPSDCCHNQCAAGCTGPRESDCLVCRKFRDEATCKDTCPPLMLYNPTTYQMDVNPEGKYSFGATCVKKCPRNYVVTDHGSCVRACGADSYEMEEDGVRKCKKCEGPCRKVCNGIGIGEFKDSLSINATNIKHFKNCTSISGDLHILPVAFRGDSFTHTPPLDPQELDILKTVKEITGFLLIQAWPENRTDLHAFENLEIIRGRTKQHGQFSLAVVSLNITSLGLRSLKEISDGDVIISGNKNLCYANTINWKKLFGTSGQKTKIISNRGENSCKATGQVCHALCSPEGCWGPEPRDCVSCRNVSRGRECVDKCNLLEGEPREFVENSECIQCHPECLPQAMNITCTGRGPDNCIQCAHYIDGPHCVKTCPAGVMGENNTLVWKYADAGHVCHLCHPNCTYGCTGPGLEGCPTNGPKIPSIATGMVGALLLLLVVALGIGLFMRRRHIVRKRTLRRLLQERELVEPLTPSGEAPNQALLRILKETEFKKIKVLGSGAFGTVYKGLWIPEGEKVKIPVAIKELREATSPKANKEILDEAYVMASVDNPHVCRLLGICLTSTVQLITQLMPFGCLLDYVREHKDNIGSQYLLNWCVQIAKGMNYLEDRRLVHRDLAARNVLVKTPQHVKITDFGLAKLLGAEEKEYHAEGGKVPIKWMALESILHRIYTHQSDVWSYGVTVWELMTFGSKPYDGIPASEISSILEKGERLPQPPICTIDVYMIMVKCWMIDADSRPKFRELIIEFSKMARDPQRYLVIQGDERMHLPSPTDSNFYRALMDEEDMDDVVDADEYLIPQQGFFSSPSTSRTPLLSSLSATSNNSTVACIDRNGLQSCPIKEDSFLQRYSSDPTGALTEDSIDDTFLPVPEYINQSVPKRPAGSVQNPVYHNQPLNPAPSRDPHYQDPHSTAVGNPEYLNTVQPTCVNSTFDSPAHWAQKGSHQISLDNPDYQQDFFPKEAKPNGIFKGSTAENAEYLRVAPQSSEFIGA

Take `CS(=O)(=O)Nc1cc(-c2ccc3ncnc(NCc4ccccc4)c3c2)cnc1Cl` [Comparative Compound 1, N-[5-[4-(benzylamino)quinazolin-6-yl]-2-chloro-3-pyridyl]methanesulfonamide, reference compound]: at DNA-PK, the IC50 was below 2 nM and the inhibition at 0.1 µM is above 90%. In data set [1], the “½ life minutes (HLM)” value is “++++ (value is greater than 60 minutes)”. On EGFR, the IC50 lay within 20 to 200 nM and the inhibition at 0.1 µM was in the range of 10 to 80%. The “½ life minutes (MLM)” value in data set [2] is “++++ (value is greater than 60 minutes)”.
On to `CS(=O)(=O)Nc1cc(-c2ccc3ncnc(Nc4ccc(F)c(Cl)c4)c3c2)cnc1Cl` [Comparative Compound 2, reference compound], for which, at DNA-PK, the IC50 is below 2 nM and the inhibition at 0.1 µM was above 90%. Besides, the “½ life minutes (HLM)” value in data set [1] was “++++ (value is greater than 60 minutes)”. Further, at EGFR, the IC50 fell in the range of 2 to 20 nM and the inhibition at 0.1 µM was above 90%. For the same compound, the “½ life minutes (MLM)” value in data set [2] is given as “++++ (value is greater than 60 minutes)”.
With `CS(=O)(=O)Nc1cncc(-c2ccc3ncnc(NCc4ccccc4)c3c2)c1` [Comparative Compound 3, reference compound], at DNA-PK (100 nM), the “DNA-PK % Inh. @ 100 nM” value is on record as “**** (value is greater than 90%)”. In addition, the “½ life minutes (HLM)” value in data set [1] was “++++ (value is greater than 60 minutes)”. The “EGFR % Inh. @ 100 nM” value on EGFR (100 nM) was “**** (value is greater than 90%)”. Also, the “½ life minutes (MLM)” value in data set [2] is reported as “+ (value is 15 minutes or less)”.
For the compound `C[C@@H](Nc1ncnc2ccc(-c3cnc(Cl)c(NS(C)(=O)=O)c3)cc12)c1ccccc1` [Compound 2R, N-(2-chloro-5-(4-((1R-phenylethyl)amino)quinazolin-6-yl)pyridin-3-yl)methanesulfonamide], the IC50 on DNA-PK and at EGFR was 2 to 20 nM in each case. Moreover, the inhibition at 0.1 µM is above 90% on DNA-PK and 80 to 90% at EGFR. Besides, in data set [1], the “½ life minutes (HLM)” value is “++++ (value is greater than 60 minutes)”. In data set [2], the “½ life minutes (MLM)” value is “++++ (value is greater than 60 minutes)”.
`C[C@H](Nc1ncnc2ccc(-c3cnc(Cl)c(NS(C)(=O)=O)c3)cc12)c1ccccc1` [Compound 2S, N-(2-chloro-5-(4-((1S-phenylethyl)amino)quinazolin-6-yl)pyridin-3-yl)methanesulfonamide]: at DNA-PK, the IC50 was below 2 nM and the inhibition at 0.1 µM is above 90%. In data set [1], the “½ life minutes (HLM)” value was “++++ (value is greater than 60 minutes)”. Further, on EGFR, the IC50 is above 200 nM and the inhibition at 0.1 µM was below 10%. In addition, the “½ life minutes (MLM)” value in data set [2] was “++++ (value is greater than 60 minutes)”.
In the case of `CC(Nc1c(C#N)cnc2ccc(-c3cnc(N)nc3)cc12)c1ccccc1` (stereo not drawn) [Compound 53, 6-(2-aminopyrimidin-5-yl)-4-(1-phenylethylamino) quinoline-3-carbonitrile], on DNA-PK, the IC50 fell in the range of 20 to 200 nM and the inhibition at 0.1 µM fell in the range of 10 to 80%. For the same compound, the “½ life minutes (HLM)” value in data set [1] is on record as “++++ (value is greater than 60 minutes)”. On EGFR, the half-inhibitory concentration (IC50) fell in the range of 2 to 20 nM and the inhibition at 0.1 µM lay in the range of 80 to 90%. The “½ life minutes (MLM)” value in data set [2] was “+++ (value is greater than 30 minutes and less than or equal to 60 minutes)”.
As to `C[C@@H](Nc1c(C#N)cnc2ccc(-c3cnc(N)nc3)cc12)c1ccccc1` [Compound 53R, (R)-6-(2-aminopyrimidin-5-yl)-4-((1-phenylethyl)amino)quinoline-3-carbonitrile], the IC50 against DNA-PK is 20 to 200 nM; against EGFR, 2 to 20 nM. In addition, the inhibition at 0.1 µM is 10 to 80% on DNA-PK and above 90% on EGFR. Moreover, the “½ life minutes (HLM)” value in data set [1] was “+++ (value is greater than 30 minutes and less than or equal to 60 minutes)”. Besides, the “½ life minutes (MLM)” value in data set [2] was “+++ (value is greater than 30 minutes and less than or equal to 60 minutes)”.
Regarding `CC(Nc1c(C#N)cnc2ccc(-c3cnc4[nH]ncc4c3)cc12)c1ccccc1` (stereo not drawn) [Compound 54, 4-(1-phenylethylamino)-6-(1H-pyrazolo[3,4-b]pyridin-5-yl)quinoline-3-carbonitrile], on DNA-PK, the IC50 lay in the range of 2 to 20 nM and the inhibition at 0.1 µM lay in the range of 80 to 90%. In data set [1], the “½ life minutes (HLM)” value was “+++ (value is greater than 30 minutes and less than or equal to 60 minutes)”. At EGFR, the half-inhibitory concentration (IC50) was 2 to 20 nM and the inhibition at 0.1 µM was above 90%. Also, the “½ life minutes (MLM)” value in data set [2] is reported as “+ (value is 15 minutes or less)”.
With `C[C@@H](Nc1ncnc2ccc(-c3cnc(Cl)c(NS(C)(=O)=O)c3)cc12)c1ccc(F)cc1` [Compound 111R, N-(2-chloro-5-(4-((1R-(4-fluorophenyl)ethyl)amino)quinazolin-6-yl)pyridin-3-yl)methanesulfonamide], the inhibition at 0.1 µM on DNA-PK lay in the range of 80 to 90%. Besides, in data set [1], the “½ life minutes (HLM)” value is reported as “++++ (value is greater than 60 minutes)”. Moreover, at EGFR, the IC50 was 20 to 200 nM and the inhibition at 0.1 µM fell in the range of 10 to 80%. Further, in data set [2], the “½ life minutes (MLM)” value is on record as “++++ (value is greater than 60 minutes)”.
